Laboratory results as given in a melting point compilation (Tetko et al.; mined from patent text by program, amines drawn as free bases though some values may be those of a salt).

| melting point [°C] | Compound |
| --- | --- |
| 260 to 262 | CS(=O)(=O)c1ccc(C(=O)NCc2ccc3c(c2)CN(C2CCC(=O)NC2=O)C3=O)cc1 (stereo not drawn) |
| 239 | CS(=O)(=O)c1ccc(CN2CCN(C(=O)N3CCC(c4cn[nH]c4)C3)c3ccccc32)cc1 (stereo not drawn) |
| 234 to 235 | CC(C)(C)OC(=O)NCc1[nH]c(=O)c2ccc(C#N)cc2c1-c1ccc(Cl)cc1 |
| 200 | CCOC(=O)C1=C(c2cccs2)Nc2n[nH]cc2C1c1ccccc1Cl (stereo not drawn) |
| 89 to 91 | CCc1cc(Oc2ccc(C(F)(F)F)cc2[N+](=O)[O-])nn1C(=O)NC |
| 72 to 76 | Clc1cc2c(cc1CN1CCN(CCOc3ccccc3)CC1)OCO2 |
| 265 to 267 | Cn1cc2c(n1)-c1sccc1N(C(=O)c1ccc(NC(=O)c3ccc(Cl)cc3Cl)cc1)CC2 |
| 127 to 129 | CC(C)Sc1cn(C)cc(-c2ccc(Cl)c(C(F)(F)F)c2)c1=O |
| 37 to 39 | C[Si](C)(C)CCOC(=O)c1cccc2nnsc12 |
| 173 to 175 | CC(=O)N1CCC(C(O)(c2ccccc2)c2ccc(F)cc2)CC1 (stereo not drawn) |
| 174 to 175 | COc1ccc(NC(=O)c2ccccc2)cc1NCc1ccc2c(c1)OCCO2 |
| 193 | Cc1ccc(S(=O)(=O)NC(=O)OCCc2ccc(-n3c(CCCc4ccccn4)nc4cc(C(F)(F)F)c(Cl)cc43)cc2)cc1 |
| 230 to 233 | CC(C)C(=O)Nc1c(Cl)cccc1C(=O)Nc1ccc(OC(F)(F)F)cc1 |
| 171 to 172 | CCO/C(=N/O)C1Cc2cc(C(=O)c3ccccc3F)c(O)c(Cl)c2O1 (stereo not drawn) |
| 155 to 157 | CC(C)c1cc(Cl)cc(C(C)C)c1NC(=O)NS(=O)(=O)c1cccc(C2(C)OCCO2)c1 |
| 113 to 118 | COC(=O)c1c(S(C)(=O)=O)ccc(C(=O)O)c1C |
| 149 to 151 | COc1ccc2oc(C(C)N(O)C(N)=O)cc2c1 (stereo not drawn) |
| 57.8 to 58.5 | COc1cc(C(C)=O)ccc1OCCCCl |
| 118 to 120 | O=C(C=Cc1c(Cl)cccc1Cl)N1CCc2c([nH]c3ccccc23)C1c1ccc2c(c1)OCO2 (stereo not drawn) |
| 127 | COC(=O)c1ccc(Cc2cc3cc(Cl)ccc3n2S(=O)(=O)c2ccc(C(C)C)cc2)cc1F |

Continued, compound first:

| Compound | melting point [°C] |
| --- | --- |
| CCOc1cc(OCCCCc2cn(-c3ccc(C(F)(F)F)cn3)nc2OCC)ccc1CCC(=O)O | 101 to 102 |
| CCCCCCCCCCCCCC/C=C\CN1C(=O)c2ccccc2C1=O | 56 to 60 |
| NS(=O)(=O)c1cc2c(s1)S(=O)CC(=O)N2 (stereo not drawn) | 222 to 223 |
| Oc1ccc(NC2Cc3ccccc3C2)cc1 | 165 to 167 |
| CCC(=C(c1ccccc1)c1ccc(C2CC2C(=O)N(CC)CC)cc1)c1ccccc1 (stereo not drawn) | 42 to 44 |
| CC(C)(C)Nc1cc(N2CCNCC2)nc(N2CCCC2)n1 | 140 to 145 |
| O=C(OC(c1ccccc1)c1ccccc1)C(OC(=S)n1ccnc1)c1ccccc1 (stereo not drawn) | 109 to 110 |
| COc1cccc(CCNc2nc(N)n3nc(-c4ccco4)nc3n2)c1 | 172 to 174 |
| OCCNc1c(Br)cnc2ccccc12 | 163 to 165 |
| COc1cc2c3c(n(C)c(=O)c2cc1OC)-c1cc2c(cc1C3=CCCCI)OCO2 | 173 to 174 |
| O=C(Cc1ccccc1)CC1c2ccccc2C(=O)N1c1ccc2ccc(Cl)nc2n1 (stereo not drawn) | 182 |
| COc1cc(C(=O)N2CC(O)CC2C(N)=O)cc(OC)c1OC (stereo not drawn) | 172 |
| Cc1ccc2c(c1)c(N1CCNCC1)c(C#N)c(=O)n2C | 274 |
| O=C(Nc1ccccc1)OCCCCCCCCCCC=C(F)F | 54 to 56 |
| Cc1c(-c2ccc(O)cc2)nnn1-c1ccc(C(F)(F)F)cc1Cl | 176 to 177 |
| CCCn1c(=O)c2[nH]c(/C=C/c3ccc(OC)c(Br)c3)nc2n(CCC)c1=O | 280 to 281 |
| N#Cc1cc(-c2nc3cncnc3s2)ccc1Oc1ccc(Cl)cc1 | 179 to 180 |
| CCOC1CCC(=O)N1S(=O)(=O)C=Cc1ccc(OC)cc1 (stereo not drawn) | 134 to 136 |
